Measurements from PubChem BioAssay (NCI).
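Cultured in 96-well plates, cells were exposed to test compound for 48 hours across five concentrations. TGI: concentration producing complete growth inhibition.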

Columns and labels:
Experiment in all cases: NCI-60 cell line screen, 48 h
A549 NSCLC = system: A549 NSCLC
ACHN renal = system: ACHN renal
CCRF-CEM leukemia = system: CCRF-CEM leukemia
COLO 205 colon = system: COLO 205 colon
DU-145 prostate = system: DU-145 prostate
EKVX NSCLC = system: EKVX NSCLC
HCC-2998 colon = system: HCC-2998 colon
HL-60(TB) leukemia = system: HL-60(TB) leukemia
IGROV1 ovarian = system: IGROV1 ovarian
KM12 colon = system: KM12 colon
MOLT-4 leukemia = system: MOLT-4 leukemia
OVCAR-5 ovarian = system: OVCAR-5 ovarian
PC-3 prostate = system: PC-3 prostate
RXF 393 renal = system: RXF 393 renal
SF-268 CNS = system: SF-268 CNS
SF-539 CNS = system: SF-539 CNS
SK-MEL-2 melanoma = system: SK-MEL-2 melanoma
SW-620 colon = system: SW-620 colon
TK-10 renal = system: TK-10 renal
SN12C renal = system: SN12C renal

| SMILES | TGI (A549 NSCLC) [µM] | TGI (ACHN renal) [µM] | TGI (CCRF-CEM leukemia) [µM] | TGI (COLO 205 colon) [µM] | TGI (DU-145 prostate) [µM] | TGI (EKVX NSCLC) [µM] | TGI (HCC-2998 colon) [µM] | TGI (HL-60(TB) leukemia) [µM] | TGI (IGROV1 ovarian) [µM] | TGI (KM12 colon) [µM] | TGI (MOLT-4 leukemia) [µM] | TGI (OVCAR-5 ovarian) [µM] | TGI (PC-3 prostate) [µM] | TGI (RXF 393 renal) [µM] | TGI (SF-268 CNS) [µM] | TGI (SF-539 CNS) [µM] | TGI (SK-MEL-2 melanoma) [µM] | TGI (SW-620 colon) [µM] | TGI (TK-10 renal) [µM] | TGI (SN12C renal) [µM] |
| --- | --- | --- | --- | --- | --- | --- | --- | --- | --- | --- | --- | --- | --- | --- | --- | --- | --- | --- | --- | --- |
| O=C1O/C(=C\c2ccc(O)c(Br)c2)C(c2ccc(O)cc2)=C1Cl | > 100 | > 100 | 41.1 | > 100 | > 100 | > 100 | > 100 | > 100 | > 100 | > 100 | > 100 | > 100 | > 100 | 84.4 | 86.2 | > 100 | > 100 | > 100 | > 100 | – |
| CC1=C(C)SC(=C2Sc3c(n(C)c(=O)[nH]c3=O)S2)S1 | > 100 | > 100 | > 100 | > 100 | > 100 | > 100 | > 100 | > 100 | > 100 | > 100 | > 100 | > 100 | > 100 | > 100 | > 100 | > 100 | > 100 | > 100 | > 100 | > 100 |
| CCOC(=O)c1ccc2c(c1)nc1n2C(c2c(F)cccc2F)SC1 (centres undefined) | > 100 | > 100 | > 100 | 28.5 | > 100 | – | > 100 | > 100 | 42 | 37.7 | > 100 | > 100 | 71.2 | > 100 | > 100 | 53.1 | 38.4 | > 100 | > 100 | > 100 |
| COC(=O)c1cc(C#N)[nH]c1-c1ccsc1 | > 100 | > 100 | > 100 | > 100 | > 100 | > 100 | > 100 | 48.7 | > 100 | > 100 | > 100 | > 100 | > 100 | > 100 | > 100 | – | > 100 | > 100 | > 100 | > 100 |
| CC1(C)C(O)c2ccccc2OC1N1CCN(C2Oc3ccccc3C(O)C2(C)C)CC1 (centres undefined) | > 100 | > 100 | > 100 | > 100 | > 100 | > 100 | > 100 | > 100 | > 100 | > 100 | > 100 | > 100 | > 100 | > 100 | > 100 | > 100 | – | > 100 | – | > 100 |
| CC(=O)O[C@H]1C(=O)[C@@]2(C)C(C(OC(=O)c3ccccc3)[C@]3(O)CC(OC(=O)C(O)C(NC(=O)c4ccccc4)c4ccc(F)cc4)C(C)=C1C3(C)C)[C@]1(OC(C)=O)CO[C@@H]1C[C@@H]2O (some centres undefined) | > 10 | > 10 | > 10 | 0.0755 | 0.0104 | > 10 | 0.0193 | – | > 10 | > 5.45 | 2.73 | > 7.89 | > 10 | 0.0187 | > 10 | 0.00307 | 3.27 | > 10 | > 10 | > 10 |
| c1ccc(COCC23CCN(Cc4ccccc4)C(CC(OCc4ccccc4)C2)S3)cc1 (centres undefined) | > 100 | > 100 | > 100 | > 100 | > 100 | > 100 | > 100 | 45.4 | > 100 | > 100 | 69.9 | > 100 | > 100 | > 100 | > 100 | > 100 | > 100 | > 100 | – | > 100 |
| COC(C)(C)C(O)C(O)C[C@H](C)C1CC=C2C1(C)CCC1[C@@]3(C)CCC(OC(C)=O)C(C)(C)C3CC(OC3OC(COC(C)=O)C(O)C(O)C3O)[C@@]21C (some centres undefined) | > 10 | > 10 | 7.96 | 3.89 | > 10 | > 10 | 6.15 | 5.54 | 8.04 | > 10 | 4.13 | > 10 | > 10 | > 10 | > 10 | > 10 | – | > 10 | > 10 | > 10 |
| Cc1cc(S(=O)(=O)Nc2nc(N)n(-c3cnc4ccccc4n3)n2)c(S)cc1Cl | > 100 | > 100 | > 100 | > 100 | > 100 | > 100 | > 100 | > 100 | > 100 | > 100 | – | > 100 | > 100 | > 100 | > 100 | > 100 | > 100 | > 100 | > 100 | > 100 |
| Cc1cc(Cl)nc(NC(=O)CSc2ccc(Cl)cc2)n1 | > 100 | > 100 | > 100 | – | > 100 | > 100 | > 100 | > 100 | > 100 | > 100 | > 100 | > 100 | > 100 | > 100 | > 100 | – | > 100 | > 100 | > 100 | > 100 |
| CC(=O)OCC1OC(n2c(C)c(N=Nc3ccc(C)cc3)c(C)c(C#N)c2=S)C(OC(C)=O)C(OC(C)=O)C1OC(C)=O (centres undefined) | > 100 | > 100 | > 100 | > 100 | > 100 | – | > 100 | > 100 | > 100 | > 100 | > 100 | > 100 | > 100 | > 100 | > 100 | > 100 | – | > 100 | > 100 | > 100 |
| COc1ccccc1C1C2=C(COC2=O)OC(C)(C)Oc2cc3c(cc21)OCO3 (centres undefined) | > 100 | > 94.1 | > 100 | 7.5 | > 100 | 26.7 | > 100 | 7.8 | > 87.1 | 11.4 | > 100 | > 100 | > 29.7 | 4.87 | 98.1 | – | > 73.7 | > 49.8 | > 28.8 | > 91.9 |
| CC12CN(CC[N+](C)(C)C)CC1(C)C1CCC2O1 (centres undefined) | > 100 | > 100 | > 100 | > 100 | > 100 | > 100 | > 100 | – | > 100 | > 100 | > 100 | > 100 | > 100 | > 100 | > 100 | > 100 | > 100 | > 100 | > 100 | > 100 |
| CC1=CC(C)C(C)N(CCNC(=O)Nc2ccccc2)c2ccccc21 (centres undefined) | 55.7 | 63.7 | 62.8 | 32.6 | > 100 | 76.3 | 61.1 | – | > 100 | 57.9 | 64.4 | 92.6 | 69.2 | 40.3 | > 100 | 68.3 | 56.2 | 83.6 | 78.2 | > 100 |
| CCOC(=O)C1C(=O)CC(C)(O)C(C(=O)OCC)C1c1ccc(N(C)C)cc1 (centres undefined) | > 100 | > 100 | > 100 | > 100 | > 100 | > 100 | > 100 | > 100 | > 100 | > 100 | > 100 | > 100 | > 100 | > 100 | > 100 | – | > 100 | > 100 | > 100 | > 100 |
| CCCSc1cc(Cl)c(C)cc1S(=O)(=O)n1cc[nH]c1=O | > 100 | > 100 | > 100 | > 100 | > 100 | > 100 | > 100 | – | > 100 | > 100 | > 100 | > 100 | > 100 | > 100 | > 100 | > 100 | > 100 | > 100 | > 100 | > 100 |
| COC(=O)[C@H](CCSC)NC(=O)c1ccc(CNC(=O)/C=C/c2cccc(Oc3ccccc3)c2)cc1 | > 100 | > 100 | > 100 | 50.5 | > 100 | > 100 | > 84 | – | > 73.2 | > 100 | 33.4 | > 100 | > 100 | 55.4 | > 100 | > 100 | 32.8 | > 100 | > 87 | > 100 |
| Cc1nnc(Nc2ccc(Cl)cc2)o1 | > 10 | > 10 | > 10 | > 10 | > 10 | > 10 | > 10 | > 10 | > 10 | > 10 | – | – | > 10 | > 10 | > 10 | > 10 | > 10 | > 10 | > 10 | > 10 |
| CC(C)=CCNc1ncnc2c1ncn2CCC(=O)OC(C)(C)C | > 100 | > 100 | > 100 | > 100 | > 100 | – | > 100 | > 100 | > 100 | > 100 | > 100 | > 100 | > 100 | > 100 | > 100 | > 100 | – | > 100 | > 100 | > 100 |
| COc1ccc(C2Oc3c(cccc3OC)C=C2[N+](=O)[O-])cc1OC (centres undefined) | > 100 | 29.3 | > 100 | 73.7 | > 100 | > 100 | – | > 100 | 24.7 | 34 | > 100 | 51.4 | 26.5 | 8.76 | > 100 | – | – | – | 81.8 | – |
| COc1ccc(-c2oc3c(CC(=O)O)cccc3c(=O)c2OC)cc1 | > 100 | > 100 | > 100 | > 100 | > 100 | > 100 | > 100 | > 100 | > 100 | – | > 100 | > 100 | > 100 | > 100 | > 100 | > 100 | > 100 | – | > 100 | > 100 |
| CC(=O)N1NC(c2ccccc2)=CC(=O)/C1=C/C(=O)c1ccccc1 | > 100 | > 100 | > 100 | > 100 | > 100 | > 100 | > 100 | 76.3 | > 100 | > 100 | > 100 | > 100 | > 100 | 83 | 99.3 | > 100 | > 100 | – | > 100 | > 100 |
| COC(=O)/C=C\c1ccc2c(c1)CC1(C2)Cc2ccc(/C=C/C(=O)OC)cc2C1 (centres undefined) | > 31.6 | > 31.6 | > 31.6 | > 31.6 | > 100 | > 31.6 | > 31.6 | > 31.6 | > 31.6 | > 31.6 | > 31.6 | > 31.6 | > 31.6 | > 31.6 | > 100 | > 31.6 | – | > 100 | > 31.6 | > 31.6 |
| CC1CC(N)=Nc2ccccc2N1Cc1ccccc1 (centres undefined) | 32.7 | 28.5 | 33.7 | 28.1 | 32.7 | 63.9 | – | 19.5 | 19.9 | 28.2 | 18.4 | > 100 | 28.2 | 24.4 | 26.4 | – | 27.4 | 25.2 | 28.2 | 30.2 |
| O=C(O)C(Cc1ccc(O)cn1)NC(=O)C(F)(F)F (centres undefined) | > 100 | > 100 | > 100 | > 100 | > 100 | > 100 | > 100 | > 100 | > 100 | > 100 | – | > 100 | > 100 | > 100 | > 100 | > 100 | – | > 100 | > 100 | > 100 |
